According to the supplement of paper PMC10307832:

Assays:
Assay in all cases: relative viability (nuclei count vs DMSO), 5 days (fraction); higher = more cells survive
AZD8055 + Linsitinib = compound: COc1ccc(-c2ccc3c(N4CCOC[C@@H]4C)nc(N4CCOC[C@@H]4C)nc3n2)cc1CO [AZD8055] + C[C@]1(O)C[C@@H](c2nc(-c3ccc4ccc(-c5ccccc5)nc4c3)c3c(N)nccn32)C1 [Linsitinib] (partner 1 µM)
In short: (§1)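 Lung cancer cell lines in 1536-well plates got either a single drug or a fixed anchor-drug dose together with five library-drug doses (not always all listed) in √10 steps, by pin tool, on the day after seeding. Nuclei were counted after 5 days, and relative viability is the treated-to-vehicle ratio of nuclei counts. Values are medians of duplicate plates.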

AZD8055 + Pemetrexed = compound: COc1ccc(-c2ccc3c(N4CCOC[C@@H]4C)nc(N4CCOC[C@@H]4C)nc3n2)cc1CO [AZD8055] + Nc1nc2[nH]cc(CCc3ccc(C(=O)N[C@@H](CCC(=O)O)C(=O)O)cc3)c2c(=O)[nH]1 [Pemetrexed] (partner 0.2 µM)
In short: as §1

AZD8055 + Vorinostat = compound: COc1ccc(-c2ccc3c(N4CCOC[C@@H]4C)nc(N4CCOC[C@@H]4C)nc3n2)cc1CO [AZD8055] + O=C(CCCCCCC(=O)Nc1ccccc1)NO [Vorinostat] (partner 1 µM)
In short: as §1

AZD8055 + Olaparib = compound: COc1ccc(-c2ccc3c(N4CCOC[C@@H]4C)nc(N4CCOC[C@@H]4C)nc3n2)cc1CO [AZD8055] + O=C(c1cc(Cc2n[nH]c(=O)c3ccccc23)ccc1F)N1CCN(C(=O)C2CC2)CC1 [Olaparib] (partner 8 µM)
In short: as §1

Cell Line | relative viability (AZD8055 + Linsitinib; first compound 0.01 µM) | relative viability (AZD8055 + Linsitinib; first compound 0.03162 µM) | relative viability (AZD8055 + Linsitinib; first compound 0.1 µM) | relative viability (AZD8055 + Linsitinib; first compound 0.3162 µM) | relative viability (AZD8055 + Linsitinib; first compound 1 µM) | relative viability (AZD8055 + Pemetrexed; first compound 0.01 µM) | relative viability (AZD8055 + Pemetrexed; first compound 0.03162 µM) | relative viability (AZD8055 + Pemetrexed; first compound 0.1 µM) | relative viability (AZD8055 + Pemetrexed; first compound 0.3162 µM) | relative viability (AZD8055 + Pemetrexed; first compound 1 µM) | relative viability (AZD8055 + Vorinostat; first compound 0.01 µM) | relative viability (AZD8055 + Vorinostat; first compound 0.03162 µM) | relative viability (AZD8055 + Vorinostat; first compound 0.1 µM) | relative viability (AZD8055 + Vorinostat; first compound 0.3162 µM) | relative viability (AZD8055 + Vorinostat; first compound 1 µM) | relative viability (AZD8055 + Olaparib; first compound 0.01 µM) | relative viability (AZD8055 + Olaparib; first compound 0.03162 µM) | relative viability (AZD8055 + Olaparib; first compound 0.1 µM) | relative viability (AZD8055 + Olaparib; first compound 0.3162 µM) | relative viability (AZD8055 + Olaparib; first compound 1 µM)
201T | 0.997 | 0.906 | 0.758 | 0.609 | 0.554 | 0.312 | 0.317 | 0.359 | 0.293 | 0.293 | 0.974 | 0.943 | 0.824 | 0.679 | 0.575 | 0.878 | 0.854 | 0.813 | 0.673 | 0.456
A-427 | 1.13 | 0.95 | 0.927 | 0.783 | 0.547 | 1.04 | 0.895 | 0.835 | 0.555 | 0.587 | 0.928 | 0.868 | 0.849 | 0.6 | 0.535 | 0.718 | 0.695 | 0.611 | 0.529 | 0.431
ABC-1 | 0.845 | 0.484 | 0.551 | 0.425 | 0.323 |  |  |  |  |  | 1.07 | 1.15 | 1.12 | 0.466 | 0.533 | 1.3 | 1.37 | 0.992 | 0.717 | 0.907
BEN | 0.955 | 0.574 | 0.41 | 0.325 | 0.279 | 0.815 | 0.589 | 0.514 | 0.421 | 0.449 | 0.614 | 0.443 | 0.442 | 0.327 | 0.297 | 1.15 | 0.884 | 0.658 | 0.455 | 0.518
CAL-12T | 0.84 | 0.658 | 0.465 | 0.211 | 0.258 | 1.02 | 0.891 | 0.918 | 0.424 | 0.296 | 0.954 | 0.631 | 0.598 | 0.276 | 0.217 | 0.679 | 0.654 | 0.491 | 0.277 | 0.226
COR-L23 | 0.977 | 0.578 | 0.392 | 0.152 | 0.14 | 0.204 | 0.194 | 0.186 | 0.177 | 0.178 | 0.505 | 0.395 | 0.326 | 0.169 | 0.177 | 0.408 | 0.42 | 0.277 | 0.143 | 0.141
Calu-6 | 1.09 | 0.77 | 0.637 | 0.356 | 0.329 |  |  |  |  |  |  |  |  |  |  | 0.716 | 0.616 | 0.505 | 0.478 | 0.362
ChaGo-K-1 |  |  |  |  |  | 0.26 | 0.262 | 0.256 | 0.251 | 0.271 | 0.769 | 0.673 | 0.741 | 0.631 | 0.541 | 0.457 | 0.48 | 0.456 | 0.437 | 0.395
EBC-1 | 1.06 | 0.724 | 0.437 | 0.235 | 0.16 |  |  |  |  |  |  |  |  |  |  | 0.764 | 0.51 | 0.331 | 0.227 | 0.172
IA-LM | 0.876 | 0.611 | 0.252 | 0.0793 | 0.118 |  |  |  |  |  | 0.814 | 0.758 | 0.524 | 0.172 | 0.127 | 0.8 | 0.823 | 0.551 | 0.302 | 0.114
NCI-H727 | 0.246 | 0.246 | 0.302 | 0.28 | 0.248 |  |  |  |  |  | 1.3 | 1.12 | 1.18 | 0.869 | 0.778 | 0.818 | 0.812 | 0.744 | 0.603 | 0.52
NCI-H1299 | 1.08 | 0.948 | 0.798 | 0.436 | 0.295 |  |  |  |  |  |  |  |  |  |  | 1.06 | 1.03 | 0.889 | 0.574 | 0.353
NCI-H1563 | 0.971 | 0.802 | 0.699 | 0.625 | 0.743 | 0.735 | 0.577 | 0.602 | 0.563 | 0.471 |  |  |  |  |  |  |  |  |  | 
NCI-H1648 |  |  |  |  |  | 0.942 | 0.675 | 0.641 | 0.324 | 0.285 | 0.501 | 0.451 | 0.293 | 0.287 | 0.273 | 0.658 | 0.739 | 0.561 | 0.239 | 0.287
NCI-H1650 |  |  |  |  |  | 0.403 | 0.463 | 0.389 | 0.39 | 0.29 | 0.729 | 0.436 | 0.521 | 0.265 | 0.236 | 0.985 | 0.865 | 0.726 | 0.417 | 0.472
NCI-H1703 | 0.514 | 0.576 | 0.623 | 0.102 | 0.29 |  |  |  |  |  |  |  |  |  |  | 0.751 | 0.279 | 0.326 | 0.232 | 0.182
NCI-H1792 | 0.292 | 0.233 | 0.223 | 0.128 | 0.101 | 0.764 | 0.343 | 0.193 | 0.108 | 0.108 |  |  |  |  |  | 0.503 | 0.379 | 0.0968 | 0.0717 | 0.108
NCI-H2170 |  |  |  |  |  | 0.287 | 0.288 | 0.255 | 0.24 | 0.248 | 0.815 | 0.734 | 0.487 | 0.271 | 0.226 | 0.67 | 0.572 | 0.37 | 0.198 | 0.183
NCI-H2342 |  |  |  |  |  | 0.748 | 0.785 | 0.542 | 0.49 | 0.549 | 0.766 | 0.702 | 0.651 | 0.501 | 0.53 | 0.376 | 0.439 | 0.362 | 0.309 | 0.289
